From article PMC4403932 (Journal of Medicinal Chemistry, 2015)
Where two headings read alike, the source gives them in different places.

Assays:
Type in all cases: binding
[1] = biological target: T1, BRD4(1) (Homo sapiens, UniProt O60885); experiment: Isothermal titration calorimetry, BRD4(1); conditions: for LE (ligand efficiency): LE = ΔG/N, N number of non-hydrogen atoms
T1 construct: made in house
Procedure: (§1) Experiments were carried out on an ITC200 titration microcalorimeter from MicroCal, LLC (GE Healthcare) equipped with a Washing module, with a cell volume of 0.2003 mL, and a 40 μL microsyringe. Experiments were carried out at 15 °C while stirring at 1000 rpm, in ITC buffer (50 mM HEPES, pH 7.5 (at 25 °C), 150 mM NaCl). The microsyringe was loaded with a solution of the protein sample (300−740 μM protein for BRD9 and BRD4(1), respectively, in ITC buffer) and was carefully inserted into the calorimetric cell which was filled with an amount of the ligand (0.2 mL, 20–25 μM in ITC buffer). The system was first allowed to equilibrate until the cell temperature reached 15 °C, and an additional delay of 60 s was applied. All titrations were conducted using an initial control injection of 0.3 μL followed by 38 identical injections of 1 μL with a duration of 2 s (per injection) and a spacing of 120 s between injections. The titration experiments were designed in such a fashion as to ensure complete saturation of the proteins before the final injection. The heat of dilution for the proteins was independent of their concentration and corresponded to the heat observed from the last injection, following saturation of ligand binding, thus facilitating the estimation of the baseline of each titration from the last injection. The collected data were corrected for protein heats of dilution (measured on separate experiments by titrating the proteins into ITC buffer) and deconvoluted using the MicroCal Origin software supplied with the instrument to yield enthalpies of binding (ΔH) and binding constants (KB) in the same fashion as that previously described in detail by Wiseman and co-workers.[66] Thermodynamic parameters were calculated using the basic equation of thermodynamics (ΔG = ΔH – TΔS = −RT ln KB, where ΔG, ΔH, and ΔS are the changes in free energy, enthalpy, and entropy of binding, respectively). In all cases a single binding site model was employed, supplied with the MicroCal Origin software package.

[2] = biological target: T2, BRD9 (Homo sapiens, UniProt Q9H8M2); experiment: Isothermal titration calorimetry, BRD9; conditions: for KD / Kd / ΔG / N (stoichiometry) / ΔHobs / TΔS: ITC; for LE (ligand efficiency): LE = ΔG/N, N number of non-hydrogen atoms
T2 construct: made in house
T2 sequence (Q9H8M2 136-240 limits assumed): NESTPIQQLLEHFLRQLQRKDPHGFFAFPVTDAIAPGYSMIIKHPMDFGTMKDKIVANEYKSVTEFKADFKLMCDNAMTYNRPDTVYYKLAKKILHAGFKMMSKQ
Procedure: as §1

[3] = biological target: T2, BRD9; experiment: Protein stability (thermal) shift assay, BRD9
Procedure: (§2) Thermal melting experiments were carried out using an Mx3005p real time PCR machine (Stratagene). Proteins were buffered in 10 mM HEPES, pH 7.5, 500 mM NaCl and assayed in a 96-well plate at a final concentration of 2 μM in 20 μL volume. Compounds were added at a final concentration of 10 or 100 μM. SYPRO Orange (Molecular Probes) was added as a fluorescence probe at a dilution of 1 in 1000. Excitation and emission filters for the SYPRO-Orange dye were set to 465 and 590 nm, respectively. The temperature was raised with a step of 3 °C per minute from 25 to 96 °C, and fluorescence readings were taken at each interval. The temperature dependence of the fluorescence during the protein denaturation process was approximated by the equation [drawing 1] where ΔuG is the difference in unfolding free energy between the folded and unfolded state, R is the gas constant, and yF and yU are the fluorescence intensity of the probe in the presence of completely folded and unfolded protein, respectively.[65] The baselines of the denatured and native states were approximated by a linear fit. The observed temperature shifts, ΔTm^obs, were recorded as the difference between the transition midpoints of sample and reference wells containing protein without ligand in the same plate and determined by nonlinear least-squares fit. Temperature shifts (ΔTm^obs) for three independent measurements per proteins/compound are summarized in Supporting Information Table S1.

[4] = biological target: T3, BRD3(2) (Homo sapiens, UniProt Q15059); experiment: Protein stability (thermal) shift assay, BRD3(2); conditions: compound 10 μM, protein 2 μM; average of triplicate
T3 construct: made in house
T3 sequence (Q15059 306-415 limits assumed): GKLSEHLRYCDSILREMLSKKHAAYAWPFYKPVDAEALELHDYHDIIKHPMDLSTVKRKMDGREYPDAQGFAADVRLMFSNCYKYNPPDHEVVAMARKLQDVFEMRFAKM
Procedure: as §2

[5] = biological target: T4, BAZ2B (Homo sapiens, UniProt Q9UIF8); experiment: Protein stability (thermal) shift assay, BAZ2B; conditions: compound 10 μM, protein 2 μM; average of triplicate; read-out: ΔTm Shift, BAZ2BA
T4 construct: representative BRDs from other structural subfamilies (family I, PCAF); family III, CREBBP; family IV, BRD9; family V, BAZ2B; made in house
T4 sequence (Q9UIF8 2060-2164 limits assumed): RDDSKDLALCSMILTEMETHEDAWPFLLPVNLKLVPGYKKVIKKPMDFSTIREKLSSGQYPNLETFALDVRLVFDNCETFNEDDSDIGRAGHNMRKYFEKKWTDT
Procedure: as §2

[6] = biological target: T1, BRD4(1); experiment: Protein stability (thermal) shift assay, BRD4(1)
Procedure: as §2

[7] = biological target: T5, BRDT(2) (Homo sapiens, UniProt Q58F21); experiment: Protein stability (thermal) shift assay, BRDT(2); conditions: compound 10 μM, protein 2 μM; average of triplicate; read-out: ΔTm Shift, BRDT(2)
T5 construct: made in house
Procedure: as §2

[8] = biological target: T6, BRDT(1) (Homo sapiens, UniProt Q58F21); experiment: Protein stability (thermal) shift assay, BRDT(1); conditions: compound 10 μM, protein 2 μM; average of triplicate
T6 construct: made in house
Procedure: as §2

[9] = biological target: T7, CREBBP (Homo sapiens, UniProt Q92793); experiment: Protein stability (thermal) shift assay, CREBBP
T7 construct: small thermal shits (1.0–1.3 °C) for the bromodomain of CREBBP; made in house
T7 sequence (Q92793 1085-1192 limits assumed): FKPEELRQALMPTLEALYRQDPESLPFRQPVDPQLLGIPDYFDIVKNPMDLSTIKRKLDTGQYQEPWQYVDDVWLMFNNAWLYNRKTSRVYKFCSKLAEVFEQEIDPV
Procedure: as §2

[10] = biological target: T8, PB1(5) (Homo sapiens, UniProt Q86U86); experiment: Protein stability (thermal) shift assay, PB1(5); conditions: compound 10 μM, protein 2 μM; average of triplicate
T8 construct: made in house
T8 sequence (Q86U86 653-763 limits assumed): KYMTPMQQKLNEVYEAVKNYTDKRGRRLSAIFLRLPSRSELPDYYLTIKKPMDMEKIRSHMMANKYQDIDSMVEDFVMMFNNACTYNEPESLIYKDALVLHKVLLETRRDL
Procedure: as §2

[11] = biological target: T9, BRD3(1) (Homo sapiens, UniProt Q15059); experiment: Protein stability (thermal) shift assay, BRD3(1); conditions: compound 10 μM, protein 2 μM; average of triplicate
T9 construct: Fragments were tested in a thermal shift assay against bromodomains of the BET subfamily; made in house
T9 sequence (Q15059 34-140 limits assumed): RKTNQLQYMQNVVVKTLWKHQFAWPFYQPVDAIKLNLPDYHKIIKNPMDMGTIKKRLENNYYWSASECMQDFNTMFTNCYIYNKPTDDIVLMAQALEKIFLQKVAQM
Procedure: as §2

[12] = biological target: T10, PCAF (Homo sapiens, UniProt Q92831); experiment: Protein stability (thermal) shift assay, PCAF; conditions: for ΔTm at 10 µM: compound 10 μM, protein 2 μM, average of triplicate
T10 construct: representative BRDs from other structural subfamilies (family I, PCAF); made in house
T10 sequence (Q92831 723-827 limits assumed): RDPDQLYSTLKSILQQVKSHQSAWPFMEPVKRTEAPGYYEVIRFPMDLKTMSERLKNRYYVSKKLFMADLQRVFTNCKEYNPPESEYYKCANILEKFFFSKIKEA
Procedure: as §2

[13] = biological target: T11, BRD4(2) (Homo sapiens, UniProt O60885); experiment: Protein stability (thermal) shift assay, BRD4(2); conditions: compound 10 μM, protein 2 μM; average of triplicate
T11 construct: made in house
Procedure: as §2

[14] = biological target: T12, BRD2(2) (Homo sapiens, UniProt P25440); experiment: Protein stability (thermal) shift assay, BRD2(2); conditions: compound 10 μM, protein 2 μM; average of triplicate
T12 construct: made in house
T12 sequence (P25440 344-453 limits assumed): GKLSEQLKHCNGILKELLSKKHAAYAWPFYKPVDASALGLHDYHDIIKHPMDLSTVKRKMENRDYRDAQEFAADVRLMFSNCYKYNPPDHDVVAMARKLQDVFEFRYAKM
Procedure: as §2

[15] = biological target: T13, BRD2(1) (Homo sapiens, UniProt P25440); experiment: Protein stability (thermal) shift assay, BRD2(1); conditions: for ΔTm at 10 µM: compound 10 μM, protein 2 μM, average of triplicate
T13 construct: Fragments were tested in a thermal shift assay against bromodomains of the BET subfamily; made in house
T13 sequence (P25440 74-180 limits assumed): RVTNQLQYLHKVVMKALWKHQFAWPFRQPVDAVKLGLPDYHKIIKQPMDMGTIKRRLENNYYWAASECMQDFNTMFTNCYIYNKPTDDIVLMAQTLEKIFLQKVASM
Procedure: as §2

[16] = system: human bromodomains (panel); experiment: Protein stability (thermal) shift assay, whole panel of human bromodomains; conditions: 10 μM compound
Procedure: as §2

[17] = 50 mM HEPES pH 7.5, 150 mM NaCl, 15 °C, reverse titration, triplicate
[18] = compound 10 μM, protein 2 μM, average of triplicate, read-out: ΔTm Shift, BRD9
[19] = thermal shift, 10 μM compound, 2 μM protein, read-out: ΔTm
[20] = compound 10 μM, protein 2 μM, average of triplicate, read-out: ΔTm Shift, BRD4(1)
[21] = compound 10 μM, protein 2 μM, average of triplicate, read-out: ΔTm Shift, CREBBP
[22] = ITC, 50 mM HEPES pH 7.5, 150 mM NaCl, 15 °C, reverse titration, triplicate, read-out: KD
[23] = ITC, read-out: dissociation constant
[24] = 50 mM HEPES pH 7.5, 150 mM NaCl, 15 °C, reverse titration, triplicate, read-out: KD

SMILES	ΔTm at 10 µM [3, 18] [°C]	ΔTm at 10 µM [3, 19] [°C]	ΔTm at 10 µM [4] [°C]	ΔTm at 10 µM [5] [°C]	ΔTm at 10 µM [6, 20] [°C]	ΔTm at 10 µM [7] [°C]	ΔTm at 10 µM [8] [°C]	ΔTm at 10 µM [9, 21] [°C]	ΔTm at 10 µM [10] [°C]	ΔTm at 10 µM [11] [°C]	ΔTm at 10 µM [12] [°C]	ΔTm at 10 µM [13] [°C]	ΔTm at 10 µM [14] [°C]	ΔTm at 10 µM [15] [°C]	Kd [2, 24] [nM]	ΔG ([2]; 15 °C)	N (stoichiometry) ([2]; 15 °C, reverse titration)	LE (ligand efficiency) [2]	ΔHobs ([2]; 15 °C, reverse titration)	also measured
Nc1nc(Br)c2nc[nH]c2n1 [Compound 2a, 2-amino-6-bromo-9H-purine]	0.01	1.6	–	–	–	–	–	–	–	–	–	–	–	–	–	–	–	–	–	KD ([1]; ITC, 50 mM HEPES pH 7.5, 150 mM NaCl, 15 °C, reverse titration, triplicate): no binding/weak; KD [2, 17]: no binding/weak
Cn1cnc2c(Br)nc(N)nc21 [Compound 2b, 2-Amino-6-bromo-9-methylpurine]	-0.0162	–	-0.6	-0.8	1.4	-0.4	-0.8	3.1	1.9	0.654	-1.6	-2.4	-1.8	-0.239	–	–	–	–	–	KD [2, 17]: no binding/weak
Nc1nc(-c2ccccc2)c2nc[nH]c2n1 [Compound 3a, 2-Amino-6-phenyl-9H-purine]	-0.107	–	0.6	0.537	1.4	0.7	0.739	0.847	0.9	0.9	1.3	0.5	0.9	1.7	8470 ± 237	–6.69 kcal/mol	0.99 ± 0.010	0.42	–	Kd [1, 22]: 12000 ± 743 nM; ΔG ([1]; ITC, 15 °C): –6.48 kcal/mol; N (stoichiometry) ([1]; ITC, 15 °C, reverse titration): 1.03 ± 0.049; Kd [1, 23]: 12000 nM; LE (ligand efficiency) [1]: 0.41; stabilization of BRD4(1) in thermal melt assay (in words) ([6]; thermal shift, 10 μM compound): stabilized; Kd ([2]; read-out: dissociation constant): 8500 nM; stabilization of PCAF in thermal melt assay (in words) ([12]; thermal shift, 10 μM compound): stabilized; binding to BRD9 in the ΔTm assay (in words) ([3]; thermal shift, 10 μM compound): lack of affinity; stabilization of BRD2(1) in thermal melt assay (in words) ([15]; thermal shift, 10 μM compound): stabilized
Nc1nc(-c2ccc(OCc3ccccc3)cc2)c2nc[nH]c2n1 [Compound 3f, 2-Amino-6-(4-(benzyloxy)phenyl)-9H-purine]	-0.116	–	4.2	–	3.5	3.2	1.8	2.6	1.5	2.2	2.8	-51.9	3.8	2	–	–	–	–	–	binding to the bromodomain panel in the ΔTm assay (in words) [16]: showed binding toward all BRDs
COc1ccccc1-c1nc(N)nc2[nH]cnc12 [Compound 7a, 2-Amino-6-(2-methoxyphenyl)-9H-purine]	–	2.9	2.5	-0.217	2.3	1.4	0.6	–	0.236	1.4	-0.7	-2.2	1.7	0.6	641 ± 33	–8.16 kcal/mol	1.06 ± 0.004	0.45	–12.71 ± 0.07 kcal/mol	ΔTm at 10 µM [9, 19]: 1.5 °C
COc1ccc(F)cc1-c1nc(N)nc2[nH]cnc12 [Compound 7b, 2-Amino-6-(5-fluoro-2-methoxyphenyl)-9H-purine]	2.6	–	0.8	0.3	0.369	3	-0.111	0.356	0.5	0.548	-0.151	0.1	0.8	0.3	351 ± 18	–8.52 kcal/mol	0.97 ± 0.004	0.45	–13.04 ± 0.07 kcal/mol	TΔS ([2]; 15 °C): –4.52 kcal/mol
COc1ccc(Cl)cc1-c1nc(N)nc2[nH]cnc12 [Compound 7c, 2-Amino-6-(5-chloro-2-methoxyphenyl)-9H-purine]	–	3.8	1.3	0.272	–	0.272	0.272	0.272	0.272	0.9	-0.9	0.7	1.2	0.4	297 ± 10	–8.59 kcal/mol	0.98 ± 0.003	0.45	–12.05 ± 0.04 kcal/mol	Kd [1, 22]: 2040 ± 118 nM; TΔS ([1]; ITC, 15 °C): 1.29 kcal/mol; ΔG ([1]; ITC, 15 °C): –7.50 kcal/mol; N (stoichiometry) ([1]; ITC, 15 °C, reverse titration): 1.05 ± 0.012; ΔHobs ([1]; ITC, 15 °C, reverse titration): –6.21 ± 0.09 kcal/mol; Kd [1, 23]: 2040 nM; LE (ligand efficiency) [1]: 0.39; ΔTm at 10 µM [6, 19]: 1.1 °C; TΔS ([2]; 15 °C): –3.46 kcal/mol
CCOc1ccc(Br)cc1-c1nc(N)nc2[nH]cnc12 [Compound 7e, 2-Amino-6-(5-bromo-2-ethoxyphenyl)-9H-purine]	0.316	–	2.7	-0.5	1.9	1.5	0.275	0.5	0.3	1.6	-1.1	-1.5	1.7	0.4	–	–	–	–	–	binding to BRD9 in the ΔTm assay (in words) ([3]; thermal shift, 10 μM compound): Affinity for BRD9 was lost
Cn1cnc2c(NCc3ccccc3)nc(NCCO)nc21 [olomoucine, reference compound]	–	–	–	–	–	–	–	–	–	–	–	–	–	–	–	–	–	–	–	binding to the bromodomain panel in the ΔTm assay (in words) [16]: did not show any significant stabilization
